Reference: patent publication US20060058315A1, “2-Oxo-ethanesulfonamide derivates” (AstraZeneca AB, priority 2002, published 2006)

Target: T1, human 11βHSD1 (Homo sapiens, UniProt P28845)
T1 construct: a construct containing full-length human 11βHSD1 enzyme (in pCMVHyg); expressed in transfected cells
Test: HeLa GRE4-βGal/11βHSD1 cell reporter assay (β-galactosidase production)
Format: cell-based
Conditions: HeLa GRE4-βGal/11βHSD1 cells, cortisone 1 μM, overnight incubation, absorbance at 570 nm
From the text: HeLa cells (human cervical carcinoma derived cells) were stably transfected with a construct containing four copies of the glucocorticoid response element (GRE) linked to a beta-galactosidase reporter gene (3 kb lac Z gene derived from pSV-B-galactosidase). These cells were then further stably transfected with a construct containing full-length human 11βHSD1 enzyme (in pCMVHyg) to create GRE4-βGal/11βHSD1 cells. The principal of the assay is as follows. Cortisone is freely taken up by the cells and is converted to cortisol by 11βHSD1 oxo-reductase activity and cortisol (but not cortisone) binds to and activates the glucocorticoid receptor. Activated glucocorticoid receptor then binds to the GRE and initiates transcription and translation of β-galactosidase. Enzyme activity can then be assayed with high sensitivity by colourimetric assay.
Cells were routinely cultured in DMIM (Invitrogen, Paisley, Renfrewshire, UK) containing 10% foetal calf serum (LabTech), 1% glutamine (Invitrogen), 1% penicillin & streptomycin (Invitrogen), 0.5 mg/ml G418 (Invitrogen) & 0.5 mg/ml hygromycin (Boehringer). Assay media was phenol red free-DMEM containing 1% glutamine, 1% penicillin & streptomycin.
Compounds (1 mM) to be tested were dissolved in dimethyl sulphoxide (DMSO) and serially diluted into assay media containing […]. […]
A cocktail (25 μl) consisting of 10× Z-buffer (600 mM Na2HPO4, 400 mM NaH2PO4.2H2O, 100 mM KCl, 10 mM MgSO4.7H2O, 500 mM, β-mercaptoethanol, pH 7.0), SDS (0.2%), chlorophenol red-β-D-galactopyranoside (5 mM, Roche Diagnostics) was added per well and plates incubated at 37° C. for 3-4 hours. β-Galactosidase activity was indicated by a yellow to red colour change (absorbance at 570 nm) measured using a Tecan Spectrafluor Ultra.
The calculation of median inhibitory concentration (IC50) values for the inhibitors was performed using Origin 6.0 (Microcal Software, Northampton M A USA). Dose response curves for each inhibitor were plotted as OD units at each inhibitor concentration with relation to a maximum signal (cortisone, no compound) and IC50 values calculated. […]

T1 sequence (P28845 whole entry): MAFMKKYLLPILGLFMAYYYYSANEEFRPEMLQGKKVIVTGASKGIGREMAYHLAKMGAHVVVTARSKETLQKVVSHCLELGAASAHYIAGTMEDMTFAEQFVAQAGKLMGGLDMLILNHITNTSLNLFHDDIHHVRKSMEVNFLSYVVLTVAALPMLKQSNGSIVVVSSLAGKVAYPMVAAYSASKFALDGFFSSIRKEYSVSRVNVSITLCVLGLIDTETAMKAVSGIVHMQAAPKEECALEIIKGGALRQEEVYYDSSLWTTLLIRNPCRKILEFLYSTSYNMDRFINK

| IC50 | Compound |
| --- | --- |
| 47 nM | CN(C)S(=O)(=O)CC(=O)c1cnccn1 [Example 14] |
| 60 nM | CC(C)Oc1ccc(C(=O)CS(=O)(=O)N(C(C)C)C(C)C)cc1 [Example 75] |
| 72 nM | CN(C)S(=O)(=O)CC(=O)c1ccccn1 [Example 2, (N,N-Dimethylsulphamoylmethyl)(pyrid-2-yl)ketone] |
